Test results: patent publication US7429564B2, “Oral insulin therapy” (Emisphere Technologies, Inc., priority 2002, dated 2008)
Where two headings read alike, the source gives them in different places.

Experiments:
[1] = Delivery agent plasma concentrations in humans after oral delivery agent capsules; type: in vivo, human
Procedure: Delivery agents 1-3 were investigated for their ability to penetrate the GI mucosa. The plasma concentration of each delivery agent was measured in human subjects after oral administration of delivery agent loaded capsules as a measure of each delivery agent's penetration efficiency.
Blood sampling for plasma delivery agent concentration determination (2 mL in sodium heparin tube) were drawn 15 minutes before dosing, and at 5, 10, 15, 30, and 45 minutes and 1, 1.5, 2, 3, 4, 6, 8, and 12 hours post-dose (14 samples per treatment) for delivery agent measurements in all treatment groups.
Two 18-gauge IV lines were situated prior to dosing; one for blood sampling, and the other for potential infusion of 20% glucose for subjects in groups 2 and 3. The subjects in group 1 only had one cannula inserted. The blood samples were centrifuged at 3000 rpm for a period of fifteen minutes at a temperature from about 2° C. to 8° C., within one hour of sample collection. Using a plastic pipette and without disturbing the red cell layer, the plasma from the collection tube was pipetted in duplicate for each analysis, blood glucose, Human Insulin, C-peptide, delivery agent into pre-labeled polypropylene tubes. The samples were stored at −70° C. until analysis.
The indicated doses were ingested by healthy human volunteers and the plasma concentrations of the delivery agents were monitored over time and the area under the curve (AUC) calculated. […] Similarly, oral administration of 800 mg of delivery agent number 3 produced more than a 23 fold greater penetration of the GI mucosa in humans than did oral administration of 750 mg of delivery agent 2 having n equal to 9 alkyl.

[2] = Example 8: food effect on 4-CNAB pharmacokinetics, type 1 diabetes patients; type: in vivo, human; conditions: for AUC / Cmax / Tmax / AUC(0-inf) / half-life: human, plasma; for AUC(0-inf): read-out: Plasma 4-CNAB AUC0-inf; for half-life: read-out: Plasma 4-CNAB t1/2 (converted)
Procedure: A single-center, open label, randomized, single dose, 3-way cross-over study was conducted in type 1 diabetes mellitus patients to investigate the effect of food on the absorption and pharmacokinetics of insulin after a single dose of oral 4-CNAB/insulin, and to determine the effect of food on the pharmacodynamics of glucose and C-peptide after a single oral dose of 4-CNAB/insulin.
For diabetic patients, the study consisted of an eligibility screening period, three study periods and a follow-up exam at the conclusion of the last period. The three study periods included the following: administration of single doses of 4-CNAB/insulin followed by fasting (treatment A), followed by an ADA breakfast […] after dosing (treatment B), and followed by an ADA breakfast […] after dosing (treatment C). The study was conducted using an open label, randomized, crossover design with an interval of at least 7 days between treatments. The patients fasted overnight. The type 1 diabetics were randomized to treatment A or […] in periods 1 and 2. In period 3, all diabetics received treatment C. A total of eight type 1 diabetic patients were enrolled. As a control group, two healthy volunteers were enrolled.
The following treatments were administered to the type 1 diabetics according to the randomization schedule (see below) • a) 400 mg 4-CNAB/300 IU insulin followed by fasting; • b) 400 mg 4-CNAB/300 IU insulin followed by an ADA breakfast 30 minutes after dosing; • c) 400 mg 4-CNAB/300 IU insulin followed by an ADA breakfast 20 minutes after dosing.
Blood samples for pharmacokinetic analysis of 4-CNAB and insulin were drawn 30, 15 and 5 minutes prior to and at 10, 20, 30, 40, 50, 60, 75, 90, 105, 120, 150, 180, 210, and 240 minutes after 4-CNAB/insulin administration (17 samples per subject per period). Blood samples for plasma glucose were drawn 30, 15 and 5 minutes prior to and at 10, 20, 30, 40, 50, 60, 75, 90, 105, 120, 150, 180, 210, and 240 minutes after administration (17 samples per subject per period). Blood samples for C-peptide were drawn 30 and 5 minutes prior to and 30, 60, 90, 120, 180 and 240 minutes after administration (8 samples per subject per period).

[3] = oral, period 0-20 minutes post-dose, Breakfast 20 min post-dose
[4] = oral, period 0-20 minutes post-dose, Breakfast 30 min post-dose
[5] = oral, period 0-20 minutes post-dose, Fasting
[6] = oral, period 0-30 minutes post-dose, Breakfast 20 min post-dose
[7] = oral, period 0-30 minutes post-dose, Breakfast 30 min post-dose
[8] = oral, period 0-30 minutes post-dose, Fasting
[9] = oral, period 0-3 hours post-dose, Breakfast 20 min post-dose
[10] = oral, period 0-3 hours post-dose, Breakfast 30 min post-dose
[11] = oral, period 0-3 hours post-dose, Fasting
[12] = po, 400 mg, 400 mg 4-CNAB/300 IU insulin oral, Breakfast 20 min post-dose
[13] = po, 400 mg, 400 mg 4-CNAB/300 IU insulin oral, Breakfast 30 min post-dose
[14] = po, 400 mg, 400 mg 4-CNAB/300 IU insulin oral, Fasting

Question: Which “Fold greater penetration of the GI mucosa vs delivery agent 1” value ([1]; humans, 800 mg vs 750 mg oral) does the source give for `O=C(O)CCCNC(=O)c1ccc(Cl)cc1O` [4-CNAB, 4-[(4-chloro, 2-hydroxybenzoyl)amino]butanoic acid] here?
Answer: approximately 13.5 fold

Question: What about the “Fold greater penetration of the GI mucosa vs delivery agent 2” value ([1]; humans, 800 mg vs 750 mg oral) of the same compound?
Answer: > 23 fold

Question: What about the AUC ([1]; plasma, oral capsules, 800 mg, healthy human volunteers) of the same compound?
Answer: 47500 ng·h/mL

Question: And the “Effect of food intake on 4-CNAB pharmacokinetics” value ([2]; breakfast 30 or 20 minutes after dosing)?
Answer: no effect on the pharmacokinetics of 4-CNAB

Question: And the AUC [2, 3]?
Answer: 2800 ng·h/mL

Question: And the Cmax [2, 3]?
Answer: 20600 ng/mL

Question: And the Tmax ([2]; oral, period 0-20 minutes post-dose, Breakfast 20 min post-dose, read-out: Plasma 4-CNAB tmax)?
Answer: 19.8 min

Question: What about the AUC [2, 4] of the same compound?
Answer: 2280 ng·h/mL

Question: And the Cmax [2, 4]?
Answer: 18800 ng/mL

Question: What about the Tmax ([2]; oral, period 0-20 minutes post-dose, Breakfast 30 min post-dose, read-out: Plasma 4-CNAB tmax) of the same compound?
Answer: 19.8 min

Question: And the AUC [2, 5]?
Answer: 2900 ng·h/mL

Question: And the Cmax [2, 5]?
Answer: 20700 ng/mL

Question: What about the Tmax ([2]; oral, period 0-20 minutes post-dose, Fasting, read-out: Plasma 4-CNAB tmax) of the same compound?
Answer: 19.8 min

Question: What about the AUC [2, 6] of the same compound?
Answer: 6370 ng·h/mL

Question: What about the Cmax [2, 6] of the same compound?
Answer: 24600 ng/mL

Question: What about the Tmax ([2]; oral, period 0-30 minutes post-dose, Breakfast 20 min post-dose, read-out: Plasma 4-CNAB tmax) of the same compound?
Answer: 25.2 min

Question: What about the AUC [2, 7] of the same compound?
Answer: 5960 ng·h/mL

Question: What about the Cmax [2, 7] of the same compound?
Answer: 24000 ng/mL

Question: What about the Tmax ([2]; oral, period 0-30 minutes post-dose, Breakfast 30 min post-dose, read-out: Plasma 4-CNAB tmax) of the same compound?
Answer: 28.8 min

Question: What about the AUC [2, 8] of the same compound?
Answer: 6300 ng·h/mL

Question: What about the Cmax [2, 8] of the same compound?
Answer: 21500 ng/mL

Question: And the Tmax ([2]; oral, period 0-30 minutes post-dose, Fasting, read-out: Plasma 4-CNAB tmax)?
Answer: 23.4 min

Question: What about the AUC [2, 9] of the same compound?
Answer: 16500 ng·h/mL

Question: What about the Cmax [2, 9] of the same compound?
Answer: 25000 ng/mL

Question: What about the Tmax ([2]; oral, period 0-3 hours post-dose, Breakfast 20 min post-dose, read-out: Plasma 4-CNAB tmax) of the same compound?
Answer: 27.6 min

Question: What about the AUC [2, 10] of the same compound?
Answer: 17100 ng·h/mL

Question: And the Cmax [2, 10]?
Answer: 24000 ng/mL

Question: What about the Tmax ([2]; oral, period 0-3 hours post-dose, Breakfast 30 min post-dose, read-out: Plasma 4-CNAB tmax) of the same compound?
Answer: 30 min

Question: And the AUC [2, 11]?
Answer: 18300 ng·h/mL

Question: What about the Cmax [2, 11] of the same compound?
Answer: 21800 ng/mL

Question: And the Tmax ([2]; oral, period 0-3 hours post-dose, Fasting, read-out: Plasma 4-CNAB tmax)?
Answer: 26.4 min

Question: What about the Cmax [2, 12] of the same compound?
Answer: 25000 ng/mL

Question: And the AUC(0-inf) [2, 12]?
Answer: 18000 ng·h/mL

Question: What about the half-life [2, 12] of the same compound?
Answer: 39 min

Question: What about the Tmax ([2]; po, 400 mg, 400 mg 4-CNAB/300 IU insulin oral, Breakfast 20 min post-dose, read-out: Plasma 4-CNAB tmax, Median (min-max)) of the same compound?
Answer: 25.2 min

Question: And the Cmax [2, 13]?
Answer: 24000 ng/mL

Question: What about the AUC(0-inf) [2, 13] of the same compound?
Answer: 18400 ng·h/mL

Question: And the half-life [2, 13]?
Answer: 42 min

Question: And the Tmax ([2]; po, 400 mg, 400 mg 4-CNAB/300 IU insulin oral, Breakfast 30 min post-dose, read-out: Plasma 4-CNAB tmax, Median (min-max))?
Answer: 30 min

Question: And the Cmax [2, 14]?
Answer: 21800 ng/mL

Question: And the AUC(0-inf) [2, 14]?
Answer: 20700 ng·h/mL

Question: And the half-life [2, 14]?
Answer: 51.6 min

Question: And the Tmax ([2]; po, 400 mg, 400 mg 4-CNAB/300 IU insulin oral, Fasting, read-out: Plasma 4-CNAB tmax, Median (min-max))?
Answer: 25.2 min
